Data on eleven compounds can be found in US6686336B2, “N-terminal D(-)-penicillamine peptides as aldehyde sequestration agents” (Federal Government as represented by the Department of …, priority 2000, dated 2004).

For data set [1] the following is noted: cited from earlier work; for AcH sequestration (trapping) in vivo: earlier studies (Nagasawa et al., J. Med. Chem, 1987).
For data set [2], the system named is rat hepatocytes. Nature of the data set: Test B: Sequestration of AcH in a hepatocyte system. The settings on record: ethanol 20 mM; for lowering of the concentration of ethanol-derived AcH: compound 1.0 mM (1/20 molar concentration of ethanol), at two hrs, vs ethanol control without dipeptide, FIG. 4. It is filed as cell-based. The procedure: Test B: Sequestration of AcH in a hepatocyte system.
Hepatocytes from male Wistar rats were isolated and cultured under conditions previously described. On culture day two, ethanol and representative compounds of the invention were added to the culture medium to final concentrations of 20 mM and 1.0 mM, respectively. After 2 hours, 1.0 ml of medium was removed and added to a semicarbazide/sodium azide mixture and frozen until assayed for AcH by gas chromatography. AcH was measured before the addition of ethanol and representative compounds of the invention and 2 hours after incubation, and the values compared against ethanol control without dipeptides. In experiments with cyanamide (to inhibit AlDH), the cyanamide was added with the ethanol to give a final concentration in the culture medium of 50 mM. Results are depicted in FIGS. 4 and 5.

Data set [3] in a line: Test A: Sequestration of AcH in a cell-free system. The settings on record: AcH 40 nmol, compound 400 nmol, 4.0 mM DTT, pH 7.4, 30 minute incubation at 37° C.; compared with 1 (positive control); FIG. 3. It is filed as biochemical. The procedure:
Test A: Sequestration of AcH in a cell-free system. AcH (40 nmol) was incubated without (control) and with representative compounds of the invention (400 nmol) in a reaction mixture containing 4.0 mM dithiothreitol (DTT) and 40 mM potassium phosphate buffer (pH 7.4) in a total volume of 1.2 ml. The AcH remaining after a 30 minute incubation period at 37° C. was quantified by headspace GC analysis. DTT was included in the reaction mixture to maintain the thiols in their reduced state.

In the case of `CC(C)[C@H](NC(=O)[C@H](N)C(C)(C)S)C(=O)O.Cl`, the melting point – broadly, the temperature, or range, at which the solid turns liquid – is 263 to 265.5 °C (dec.).

Turning to `NC(C(=O)O)C1(S)CCCC1` (racemic) [Compound 2, β,β-tetramethylene-DL-cysteine], the “AcH sequestration (trapping) in vivo” value in data set [1] is given as “best β-mercapto-α-amino acid sequestration agents for AcH in vivo”.

Take `CC(C)(S)[C@@H](N)C(=O)O` [Compound 1, D(−)-penicillamine]: in data set [1], the “AcH sequestration (trapping) in vivo” value is reported as “best β-mercapto-α-amino acid sequestration agents for AcH in vivo”.

In turn, `CC(C)(S)[C@@H](N)C(=O)NCC(=O)O.Cl` [Compound 6a, D-Penicillamylglycine Hydrochloride] displayed a melting point of 67 to 71 °C. The “lowering of the concentration of ethanol-derived AcH” value in data set [2] worked out at 79%. Further, the “reduction of ethanol-derived AcH concentration in presence of cyanamide” value in data set [2] (compound 1.0 mM, cyanamide (AlDH inhibitor) 50 mM, 2 hours, vs control without dipeptide, FIG. 5) turned out to be 33%.

For `CC(N)(CC(=O)[C@H](N)C(C)(C)S)C(=O)O.Cl` (stereo partly drawn) [Compound 6c, D-Penicillamyl-α-aminoisobutyric acid hydrochloride], the melting point was 145 to 148 °C.

For the compound `CC(C)(S)[C@@H](N)C(=O)NCCC(=O)O.Cl` [Compound 6d, D-Penicillamyl-β-alanine Hydrochloride], the melting point is 71 to 75 °C. In addition, the “lowering of the concentration of ethanol-derived AcH” value in data set [2] is 84%.

`N[C@@H](CCS)C(=O)O` [L-Homocysteine]: in data set [3], the “AcH sequestering activity (AcH remaining by headspace GC)” value is on record as “comparable to 1”. Also, the “AcH sequestration (trapping) in vivo” value in data set [1] was “not to be an effective AcH-trapping agent in vivo”. Further, the metabolism in vivo entry in data set [1] (given as reason for lack of AcH trapping) is reported as “metabolized too rapidly in vivo”.

As for `CSCC[C@H](N)C(=O)O` [Methionine], the “AcH sequestering activity (AcH remaining by headspace GC)” value in data set [3] was “totally without AcH sequestering activity”.

`N#CN` [cyanamide]: the “increase in ethanol-derived AcH” value in data set [2] (cyanamide in incubation medium (50 mM), control without dipeptide, FIG. 5) is 45 fold.

With `N[C@@H](CO)C(=O)O` [serine], the “AcH sequestering activity (AcH remaining by headspace GC)” value in data set [3] is “totally without AcH sequestering activity”.

For the compound `C[C@@H](O)[C@H](N)C(=O)O` [threonine], the “AcH sequestering activity (AcH remaining by headspace GC)” value in data set [3] was “totally without AcH sequestering activity”.
